In ChEMBL document CHEMBL1201862, “PubChem BioAssay data set” (2004):
The source made the active and inactive calls.

Experiments:
[1] = biological target: NAD-dependent protein deacylase sirtuin-5, mitochondrial (Homo sapiens, UniProt Q9NXA8); experiment: sirtuin-5 deacylation blockers, concentration series – biochemical, fluorescence imaging, cherry-pick, set 5, dose response (AID 720591);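 note: desuccinylation of succinyl peptide AMC substrate read as fluorescence after trypsin release; potency of inhibitors that lower fluorescence and may act on trypsin instead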
NAD-dependent protein deacylase sirtuin-5, mitochondrial, sequence (Q9NXA8 whole entry): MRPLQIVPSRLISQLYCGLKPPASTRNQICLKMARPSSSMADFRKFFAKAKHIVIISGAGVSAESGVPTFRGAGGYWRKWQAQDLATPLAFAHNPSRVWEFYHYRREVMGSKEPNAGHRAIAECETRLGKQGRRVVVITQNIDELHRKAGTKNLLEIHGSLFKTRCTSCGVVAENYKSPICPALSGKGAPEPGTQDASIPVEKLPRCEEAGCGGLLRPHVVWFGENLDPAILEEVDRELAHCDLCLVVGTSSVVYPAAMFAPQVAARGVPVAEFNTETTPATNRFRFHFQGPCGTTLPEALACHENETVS

[2] = viability loss in HEK293 kidney cells – cell-based, cherry-picks, set 5, cytotoxicity control, dose response (AID 1053117); format: functional
[3] = blockers of FN fibrillogenesis by fibroblasts – AH1F cells, Alexa488-FN fluorescence, cherry-picks, dose response (AID 1035475); format: functional, cell-based
[4] = biological target: Glucose-6-phosphate 1-dehydrogenase (Homo sapiens, UniProt P11413); experiment: inhibition of Homo sapiens G6PD, dose series – biochemical, fluorescence, selectivity assay for P. falciparum G6PD inhibitor project, dose response (AID 504792); format: functional
Glucose-6-phosphate 1-dehydrogenase, sequence (P11413 whole entry): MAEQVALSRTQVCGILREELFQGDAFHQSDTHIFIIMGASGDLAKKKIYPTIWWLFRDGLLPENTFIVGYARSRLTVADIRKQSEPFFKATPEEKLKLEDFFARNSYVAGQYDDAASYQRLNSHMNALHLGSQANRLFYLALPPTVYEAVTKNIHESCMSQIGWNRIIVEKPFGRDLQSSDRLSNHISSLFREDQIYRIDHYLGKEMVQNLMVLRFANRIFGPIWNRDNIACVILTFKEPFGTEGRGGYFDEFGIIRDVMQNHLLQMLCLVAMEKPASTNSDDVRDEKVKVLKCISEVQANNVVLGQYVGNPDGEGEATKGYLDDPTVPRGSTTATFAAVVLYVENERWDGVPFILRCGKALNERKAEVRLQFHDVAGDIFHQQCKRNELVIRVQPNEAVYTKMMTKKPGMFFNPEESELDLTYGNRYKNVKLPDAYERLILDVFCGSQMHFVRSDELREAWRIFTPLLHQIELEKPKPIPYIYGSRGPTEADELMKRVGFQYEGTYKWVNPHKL

[5] = Luminescence-based cell-based high throughput dose response assay to identify activators of the DAF-12 from the parasite S. stercoralis (ssDAF-12).; format: functional
[6] = biological target: T1, Oxysterols receptor LXR-beta (Homo sapiens, UniProt P55055); experiment: LXR agonists, Gal4 luciferase reporter, dose response, counter-screen for ssDAF-12 agonist project, cell-based, luminescence, HEK293, S. stercoralis campaign (AID 720737); format: functional; conditions: read-out: IC50 (the source's name)
T1 sequence (P55055 whole entry): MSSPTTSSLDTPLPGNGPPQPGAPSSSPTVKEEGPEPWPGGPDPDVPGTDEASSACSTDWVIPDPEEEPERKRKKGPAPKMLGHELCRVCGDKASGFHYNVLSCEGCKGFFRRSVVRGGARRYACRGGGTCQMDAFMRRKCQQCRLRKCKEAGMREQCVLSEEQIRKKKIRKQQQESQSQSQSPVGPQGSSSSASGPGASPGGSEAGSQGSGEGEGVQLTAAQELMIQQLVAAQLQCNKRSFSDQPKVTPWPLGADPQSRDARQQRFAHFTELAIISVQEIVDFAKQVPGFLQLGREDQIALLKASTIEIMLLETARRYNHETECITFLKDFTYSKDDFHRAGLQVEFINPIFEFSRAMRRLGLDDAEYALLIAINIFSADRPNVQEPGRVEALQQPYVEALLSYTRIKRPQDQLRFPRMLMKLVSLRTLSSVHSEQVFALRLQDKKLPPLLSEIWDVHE

[7] = tested on: HEK293; experiment: inhibition of NOD1-driven NF-kB reporter – cell-based, luminescence, uHTS, primary screen (AID 1578); format: functional; conditions: Homo sapiens
[8] = decrease of insulin promoter-GFP reporter – imaging, high-content screening, mouse beta cells (AID 1628); format: functional; conditions: MIN6
[9] = tested on: HEK293; experiment: cells; format: functional, cell-based; conditions: Homo sapiens
[10] = MIN6 cell viability loss – mouse insulinoma, cytotoxicity control, dose response (AID 2122); format: functional;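 note: confirmatory high-throughput counterscreen run to flag cytotoxic compounds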
[11] = tested on: HEK293; experiment: cells; format: functional, cell-based; conditions: Homo sapiens; remark: listed apart in the source
[12] = tested on: HEK293; experiment: NOD2 signaling inhibitors in MDP-stimulated cells, cell-based, uHTS, luminescence (AID 2001); format: functional; conditions: Homo sapiens
[13] = tested on: INS1; experiment: INS-1E survival protection against cytokine death – cell-based, luminescence, retest, dose response (AID 449756); format: functional; conditions: Rattus norvegicus;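 note: cell death triggered by IL-1 beta plus TNF-alpha plus IFN-gamma mixture; protective hits raise ATP signal compared with cytokine alone wells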
[14] = reduction of Shn3 3'UTR-driven luciferase in osteoblasts – cell-based, Clone20 osteoblasts, firefly luciferase, cherry-picked, dose response (AID 624132); format: functional;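 note: firefly luciferase luminescence from reporter carrying the Shn3 3'UTR in osteoblasts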
[15] = loss of viability in HepG2 cells – cell-based, CellTiter-Glo, cherry-picked, cytotoxicity control for Shn3 inhibitor project, dose response (AID 624134); format: functional
[16] = non-specific 3'UTR reporter inhibition in Clone20-Shn3RL – cell-based, Renilla luciferase, cherry-picked, counter-screen for Shn3 inhibitor project, dose response (AID 624133); format: functional
[17] = Shn3 3'UTR reporter signal decrease – cell-based, Clone20 osteoblasts, firefly luciferase, cherry-pick, set 2, Schnurri-3 inhibitor project, dose response (AID 720490); format: functional;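 note: actives lower the luminescence signal as inhibitors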
[18] = biological target: T2, Potassium channel subfamily K member 9 (Homo sapiens, UniProt Q9NPC2); experiment: TASK3 channel blockers, electrophysiology – cell-based, automated electrophysiology, selectivity assay for TASK1 (KCNK3) inhibitor project, SAR follow-up (AID 652210); format: functional
T2 sequence (Q9NPC2 whole entry): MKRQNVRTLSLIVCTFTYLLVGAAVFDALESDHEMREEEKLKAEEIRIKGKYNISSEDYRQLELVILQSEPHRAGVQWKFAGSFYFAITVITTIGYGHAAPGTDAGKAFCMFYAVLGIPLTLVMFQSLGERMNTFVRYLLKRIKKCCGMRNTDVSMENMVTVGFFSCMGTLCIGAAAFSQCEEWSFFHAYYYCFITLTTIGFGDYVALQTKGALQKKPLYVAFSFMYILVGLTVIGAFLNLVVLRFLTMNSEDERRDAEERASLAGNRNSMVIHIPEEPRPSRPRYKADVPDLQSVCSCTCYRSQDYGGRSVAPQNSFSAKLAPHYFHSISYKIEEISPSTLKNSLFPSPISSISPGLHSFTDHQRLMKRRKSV

[19] = biological target: T2, Potassium channel subfamily K member 9; experiment: KCNK9 flux blockade, concentration-response – cell-based, FluxOR thallium flux, selectivity assay for TASK1 inhibitor project, SAR follow-up (AID 652211); format: functional;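 note: potency is for inhibitors of the channel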
[20] = biological target: Potassium channel subfamily K member 3 (Rattus norvegicus, UniProt O54912); experiment: SAR analysis for the identification of selective inhibitors of the two-pore domain potassium channel TASK1(KCNK3):Automated Electrophysiology.; format: functional
Potassium channel subfamily K member 3 (Rattus norvegicus, UniProt O54912), sequence (O54912 whole entry, the tested form may be a part): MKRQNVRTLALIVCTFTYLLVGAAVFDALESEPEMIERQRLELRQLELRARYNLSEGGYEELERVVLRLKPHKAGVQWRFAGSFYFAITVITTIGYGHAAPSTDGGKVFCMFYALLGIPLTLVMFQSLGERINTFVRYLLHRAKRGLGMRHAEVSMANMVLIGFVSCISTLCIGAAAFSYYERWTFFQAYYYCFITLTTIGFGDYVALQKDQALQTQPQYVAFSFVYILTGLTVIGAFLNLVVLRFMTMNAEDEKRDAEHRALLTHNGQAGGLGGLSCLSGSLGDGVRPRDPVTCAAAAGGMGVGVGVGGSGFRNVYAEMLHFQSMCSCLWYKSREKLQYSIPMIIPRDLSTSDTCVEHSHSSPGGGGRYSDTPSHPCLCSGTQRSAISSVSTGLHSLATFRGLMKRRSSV

[21] = biological target: Potassium channel subfamily K member 3 (Homo sapiens, UniProt O14649); experiment: inhibition of human KCNK3 channel flux – CHO cells, FluxOR thallium flux, SAR follow-up (AID 652212); format: functional
Potassium channel subfamily K member 3 (Homo sapiens, UniProt O14649), sequence (O14649 whole entry): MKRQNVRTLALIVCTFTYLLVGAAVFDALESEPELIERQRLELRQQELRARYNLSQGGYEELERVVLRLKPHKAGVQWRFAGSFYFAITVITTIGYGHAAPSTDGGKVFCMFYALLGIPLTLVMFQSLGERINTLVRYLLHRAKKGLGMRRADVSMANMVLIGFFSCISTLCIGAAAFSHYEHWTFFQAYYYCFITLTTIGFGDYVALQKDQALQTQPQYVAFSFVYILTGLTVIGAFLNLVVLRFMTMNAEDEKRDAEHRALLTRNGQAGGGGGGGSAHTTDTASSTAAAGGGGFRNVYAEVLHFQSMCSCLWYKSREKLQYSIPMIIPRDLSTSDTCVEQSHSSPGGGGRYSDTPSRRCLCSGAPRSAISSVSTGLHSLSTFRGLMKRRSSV

[22] = tested on: Streptococcus sp. 'group A'; experiment: Streptococcus pyogenes SK(-)GAS viability under kanamycin – luminescence, BacTiterGlo, confirmation, counter-screen for streptokinase expression inhibitor project, dose response (AID 1900); format: functional, organism-based
[23] = biological target: T3, Streptokinase A (Streptococcus pyogenes serotype M1, UniProt P10520); experiment: viability-normalized secreted streptokinase activity reduction – plasminogen activation absorbance, OD405, dose response (AID 1914); format: functional, Streptococcus pyogenes M1 GAS;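 note: secreted streptokinase activity via plasminogen activation per viability signal from cell pellet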
T3 sequence (P10520 whole entry): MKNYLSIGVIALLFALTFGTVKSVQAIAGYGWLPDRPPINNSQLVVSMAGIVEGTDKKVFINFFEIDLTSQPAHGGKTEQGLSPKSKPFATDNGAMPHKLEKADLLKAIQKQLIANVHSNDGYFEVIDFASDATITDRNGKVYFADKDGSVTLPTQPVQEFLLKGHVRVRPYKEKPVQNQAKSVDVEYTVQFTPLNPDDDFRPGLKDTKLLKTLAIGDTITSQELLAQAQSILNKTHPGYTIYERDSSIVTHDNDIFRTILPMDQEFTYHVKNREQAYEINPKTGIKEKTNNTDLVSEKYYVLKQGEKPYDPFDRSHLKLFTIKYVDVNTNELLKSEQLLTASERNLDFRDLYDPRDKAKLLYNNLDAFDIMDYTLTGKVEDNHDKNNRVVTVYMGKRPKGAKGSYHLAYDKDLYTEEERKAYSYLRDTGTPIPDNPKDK

[24] = microbe, parasite or virus in culture; format: functional; conditions: Mycobacterium tuberculosis
[25] = viability of PTEN-deleted HCT116 cells – cell-based, HCT116 PTEN knockout, dose response (AID 1047); format: functional;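 note: HCT116 colon tumor cells with PTEN knocked out; cells exposed to compound for 60 hours before readout; potency for loss of cell viability measured by luminescence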
[26] = viability of HCT116 lacking mutant beta-catenin – cell-based, human colon tumor, dose response (AID 1045); format: functional;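 note: HCT116 colon tumor cells with beta catenin knocked out; cells exposed to compound for 60 hours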
[27] = tested on: Streptococcus; experiment: GAS UMAA2166 growth inhibition – luminescence, BacTiterGlo, counter-screen for streptokinase expression inhibitor project, dose response (AID 1915); format: functional, organism-based;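 note: potency for reduction of bacterial viability or growth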
[28] = biological target: Disintegrin and metalloproteinase domain-containing protein 17 (Homo sapiens, UniProt P78536); experiment: inhibition of ADAM17 substrate cleavage – biochemical, quenched FRET substrate, counter-screen for ADAM10 exosite inhibitor project, dose response (AID 743253)
Disintegrin and metalloproteinase domain-containing protein 17, sequence (P78536 whole entry, the tested form may be a part): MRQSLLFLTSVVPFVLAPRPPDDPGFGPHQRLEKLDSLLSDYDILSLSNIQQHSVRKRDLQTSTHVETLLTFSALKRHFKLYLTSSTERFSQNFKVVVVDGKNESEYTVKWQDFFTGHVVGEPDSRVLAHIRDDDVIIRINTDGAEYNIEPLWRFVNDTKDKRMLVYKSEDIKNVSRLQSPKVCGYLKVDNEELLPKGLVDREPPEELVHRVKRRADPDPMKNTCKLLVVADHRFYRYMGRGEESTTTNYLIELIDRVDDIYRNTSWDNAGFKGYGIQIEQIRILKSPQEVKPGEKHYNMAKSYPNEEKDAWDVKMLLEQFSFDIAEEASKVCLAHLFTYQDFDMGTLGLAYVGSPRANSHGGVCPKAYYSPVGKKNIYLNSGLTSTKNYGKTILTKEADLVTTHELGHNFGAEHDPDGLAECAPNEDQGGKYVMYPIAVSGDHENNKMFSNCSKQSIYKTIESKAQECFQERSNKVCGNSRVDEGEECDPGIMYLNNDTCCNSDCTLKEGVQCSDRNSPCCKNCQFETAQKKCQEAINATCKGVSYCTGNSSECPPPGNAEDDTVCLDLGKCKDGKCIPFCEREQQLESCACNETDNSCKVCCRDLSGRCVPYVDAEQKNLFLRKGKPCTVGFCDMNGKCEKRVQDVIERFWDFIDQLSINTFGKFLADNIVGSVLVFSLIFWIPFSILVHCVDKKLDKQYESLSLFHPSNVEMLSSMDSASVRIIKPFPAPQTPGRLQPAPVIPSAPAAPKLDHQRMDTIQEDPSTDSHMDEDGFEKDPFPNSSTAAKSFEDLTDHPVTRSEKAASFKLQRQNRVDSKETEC

[29] = BioA aminotransferase inhibition, coupled fluorescent readout – biochemical, coupled fluorescence displacement, 20-point, dry powder, dose response (AID 743357); format: functional

SMILES: COc1ccc(NC(=O)c2cccnc2N2CCCC2)cc1
- AC50 [1]: > 30 µM (inactive)

SMILES: N#Cc1ccc(-c2ccc3c(c2)[C@@H]2[C@@H](CCN2S(=O)(=O)c2cccc(F)c2)[C@H](CO)N3)cc1
- AC50 [2]: > 52 µM (inactive)
- AC50 [3]: 1.18 µM (active)

SMILES: COc1ccc(C(=O)/C=C2\Sc3ccccc3N2C)cc1
- IC50 [4]: > 80 µM (inactive)
- IC50 [5]: > 67.6 µM (inactive)
- EC50 [6]: > 67.6 µM (inactive)

SMILES: O=C(c1cc(COc2ccc3ncccc3c2)on1)N1CCCCCC1
- EC50 [7]: 1.85 µM (active)
- IC50 [8]: 1.86 µM (active)
- IC50 [9]: 5.76 µM (active)
- IC50 [10]: 1.13 µM (active)
- IC50 [11]: > 20 µM (inactive)
- IC50 [12]: 13.2 µM (inactive)
- AC50 [13]: 5.88 µM (active)
- AC50 [14]: 0.703 µM (active)
- AC50 [15]: 43.6 µM (active)
- AC50 [16]: 23.4 µM (active)
- AC50 [17]: 3.57 µM (active)

SMILES: CCOc1ccccc1NC(=O)c1cccc(NC(=O)c2ccccc2C(F)(F)F)c1
- IC50 [18]: 0.52 µM (active)
- IC50 [19]: 0.32 µM (active)
- IC50 [20]: 0.006 µM (active)
- IC50 [21]: 0.03 µM (active)

SMILES: O=[N+]([O-])c1ccc(-c2nc(-c3cccs3)c(-c3cccs3)[nH]2)cc1
- EC50 [22]: 11.6 µM (active)
- EC50 [23]: 20.1 µM (active)
- CC50 [24]: 19.5 µM (active)
- EC50 [25]: 17.1 µM (active)
- EC50 [26]: 19 µM (active)
- EC50 [27]: 17.3 µM (active)
- IC50 [28]: > 69.5 µM (inactive)

SMILES: COc1cc2c(cc1C(=O)N1CCN(c3ccc(C(C)=O)cc3)CC1)OCO2
- AC50 [29]: 13.7 µM (active)
